Measured values taken from ChEMBL document CHEMBL3885861, “Open TG-GATES”.

Species: Rattus norvegicus
Assay: Open TG-GATES - Regimen: Single
Assay type: toxicity, organism-based, Sprague-Dawley
Design: regimen Single, gender Male, age 6 weeks
Settings: in vivo, po, 100 mg/kg, route gavage, dose level Low; for APTT / Bas / Eos / Fbg / Hb / Ht / Lym / MCH / MCHC / MCV / Mono / Neu / PT / Plat / RBC / Ret / WBC: tissue Blood; for KIDNEY_L / KIDNEY_R / KIDNEY_TOTAL: tissue Kidney; for LIVER: tissue Liver; for A/G / ALP / ALT / AST / BUN / CRE / Ca / Cl / DBIL / GLC / IP / K / LDH / Na / PL / RALB / TBIL / TC / TG / TP / gamma-GTP: tissue Plasma

Q: What does the source list for `O=C(N[C@H](CO)[C@H](O)c1ccc([N+](=O)[O-])cc1)C(Cl)Cl` [CHLORAMPHENICOL]?
A: TERMINAL_BW (3 h): 219.7 g; APTT (3 h): 16 s; Bas (3 h): 0%; Eos (3 h): 0.6%; Fbg (3 h): 268.8 mg/dL; Hb (3 h): 13.2 g/dL; Ht (3 h): 38.6%; Lym (3 h): 76.2%; MCH (3 h): 21.9 pg; MCHC (3 h): 34.3%; MCV (3 h): 63.8 fL; Mono (3 h): 3%; Neu (3 h): 19.2%; PT (3 h): 14.6 s; Plat (3 h): 115.2 x10_4/uL; RBC (3 h): 608.2 x10_4/ul; Ret (3 h): 8.1%; WBC (3 h): 83.6 x10_2/uL; KIDNEY_L (3 h): 0.9 g; KIDNEY_R (3 h): 0.9 g; KIDNEY_TOTAL (3 h): 1.9 g; LIVER (3 h): 9.6 g; A/G (3 h): 0.8; ALP (3 h): 1429.8 IU/L; ALT (3 h): 43 IU/L; AST (3 h): 74.2 IU/L; BUN (3 h): 10.2 mg/dL; CRE (3 h): 0.2 mg/dL; Ca (3 h): 11.5 mg/dL; Cl (3 h): 105 meq/L; DBIL (3 h): 0.014 mg/dL; GLC (3 h): 180.8 mg/dL; IP (3 h): 8.7 mg/dL; K (3 h): 4.2 meq/L; LDH (3 h): 58.6 IU/L; Na (3 h): 140.4 meq/L; PL (3 h): 136.6 mg/dL; RALB (3 h): 2.5 g/dL; TBIL (3 h): 0.06 mg/dL; TC (3 h): 78.4 mg/dL; TG (3 h): 58.4 mg/dL; TP (3 h): 5.4 g/dL; gamma-GTP (3 h): 1.2 IU/L; TERMINAL_BW (6 h): 219.6 g; APTT (6 h): 17.7 s; Bas (6 h): 0%; Eos (6 h): 0.8%; Fbg (6 h): 283.6 mg/dL; Hb (6 h): 13.4 g/dL; Ht (6 h): 42.9%; Lym (6 h): 78.2%; MCH (6 h): 21.3 pg; MCHC (6 h): 31.1%; MCV (6 h): 68.5 fL; Mono (6 h): 2.2%; Neu (6 h): 18.2%; PT (6 h): 14.7 s; Plat (6 h): 106.7 x10_4/uL; RBC (6 h): 627.6 x10_4/ul; Ret (6 h): 7.9%; WBC (6 h): 71.4 x10_2/uL; KIDNEY_L (6 h): 1 g; KIDNEY_R (6 h): 1 g; KIDNEY_TOTAL (6 h): 1.9 g; LIVER (6 h): 9.1 g; A/G (6 h): 0.9; ALP (6 h): 1362.6 IU/L; ALT (6 h): 39.2 IU/L; AST (6 h): 75.2 IU/L; BUN (6 h): 9 mg/dL; CRE (6 h): 0.2 mg/dL; Ca (6 h): 11.4 mg/dL; Cl (6 h): 105 meq/L; DBIL (6 h): 0.012 mg/dL; GLC (6 h): 176.8 mg/dL; IP (6 h): 9.6 mg/dL; K (6 h): 4.2 meq/L; LDH (6 h): 89.4 IU/L; Na (6 h): 141 meq/L; PL (6 h): 126.2 mg/dL; RALB (6 h): 2.5 g/dL; TBIL (6 h): 0.066 mg/dL; TC (6 h): 72.6 mg/dL; TG (6 h): 48.4 mg/dL; TP (6 h): 5.4 g/dL; gamma-GTP (6 h): 1.2 IU/L; TERMINAL_BW (9 h): 221.1 g; APTT (9 h): 16.6 s; Bas (9 h): 0%; Eos (9 h): 1%; Fbg (9 h): 281.8 mg/dL; Hb (9 h): 13.3 g/dL; Ht (9 h): 42.4%; Lym (9 h): 78.6%; MCH (9 h): 21.2 pg; MCHC (9 h): 31.3%; MCV (9 h): 67.8 fL; Mono (9 h): 2%; Neu (9 h): 17.6%; PT (9 h): 14.8 s; Plat (9 h): 115.3 x10_4/uL; RBC (9 h): 626.6 x10_4/ul; Ret (9 h): 7.9%; WBC (9 h): 61.1 x10_2/uL; KIDNEY_L (9 h): 0.9 g; KIDNEY_R (9 h): 0.9 g; KIDNEY_TOTAL (9 h): 1.9 g; LIVER (9 h): 9 g; A/G (9 h): 0.9; ALP (9 h): 1589.8 IU/L; ALT (9 h): 38.8 IU/L; AST (9 h): 67.2 IU/L; BUN (9 h): 9 mg/dL; CRE (9 h): 0.2 mg/dL; Ca (9 h): 11.4 mg/dL; Cl (9 h): 105.2 meq/L; DBIL (9 h): 0.014 mg/dL; GLC (9 h): 181 mg/dL; IP (9 h): 10 mg/dL; K (9 h): 4.2 meq/L; LDH (9 h): 61.4 IU/L; Na (9 h): 140.8 meq/L; PL (9 h): 145.6 mg/dL; RALB (9 h): 2.6 g/dL; TBIL (9 h): 0.072 mg/dL; TC (9 h): 83.2 mg/dL; TG (9 h): 47.4 mg/dL; TP (9 h): 5.5 g/dL; gamma-GTP (9 h): 1 IU/L; TERMINAL_BW (24 h): 224.4 g; APTT (24 h): 16.8 s; Bas (24 h): 0%; Eos (24 h): 1%; Fbg (24 h): 264.4 mg/dL; Hb (24 h): 13.3 g/dL; Ht (24 h): 41.6%; Lym (24 h): 79.8%; MCH (24 h): 21.4 pg; MCHC (24 h): 32%; MCV (24 h): 66.7 fL; Mono (24 h): 3.6%; Neu (24 h): 15%; PT (24 h): 14.8 s; Plat (24 h): 123 x10_4/uL; RBC (24 h): 623.4 x10_4/ul; Ret (24 h): 7%; WBC (24 h): 81.1 x10_2/uL; KIDNEY_L (24 h): 1 g; KIDNEY_R (24 h): 1 g; KIDNEY_TOTAL (24 h): 1.9 g; LIVER (24 h): 9.4 g; A/G (24 h): 0.9; ALP (24 h): 1622.8 IU/L; ALT (24 h): 48.2 IU/L; AST (24 h): 80.4 IU/L; BUN (24 h): 15 mg/dL; CRE (24 h): 0.2 mg/dL; Ca (24 h): 11.4 mg/dL; Cl (24 h): 105.8 meq/L; DBIL (24 h): 0.012 mg/dL; GLC (24 h): 186.6 mg/dL; IP (24 h): 8.6 mg/dL; K (24 h): 4.1 meq/L; LDH (24 h): 61.4 IU/L; Na (24 h): 141.6 meq/L; PL (24 h): 133 mg/dL; RALB (24 h): 2.6 g/dL; TBIL (24 h): 0.058 mg/dL; TC (24 h): 76.8 mg/dL; TG (24 h): 53.6 mg/dL; TP (24 h): 5.6 g/dL; gamma-GTP (24 h): 1 IU/L
